Experimental data as given in patent publication US9237747B2, “Herbicidal compositions comprising 4-amino-3-chloro-5-fluoro-6-(4-chloro-2-fluoro-3-methoxyphenyl) pyridine-2-carboxylic acid or a derivative thereof and insecticides” (priority 2013, dated 2016).
Read-outs that look alike come from different tables or passages of the source.

How the values were obtained:
ECHCO = assay: Postemergence foliar-applied weed control, direct-seeded rice (greenhouse); type: in vivo, Echinochloa colonum
Method: (§1) Seeds or nutlets of the desired test plant species were planted in a soil matrix prepared by mixing a loam or sandy loam soil (e.g., 28.6 percent silt, 18.8 percent clay, and 52.6 percent sand, with a pH of about 5.8 and an organic matter content of about 1.8 percent) and calcareous grit in an 80 to 20 ratio. The soil matrix was contained in plastic pots with a volume of 1 quart and a surface area of 83.6 square centimeters (cm^2). […] The plants were grown for 8-22 days in a greenhouse with an approximate 14 hour (h) photoperiod which was maintained at about 29° C. during the day and 26° C. during the night. Nutrients (Peters Excel® 15-5-15 5-Ca 2-Mg and iron chelate) were applied in the irrigation solution as needed and water was added on a regular basis. Supplemental lighting was provided with overhead metal halide 1000-Watt lamps as necessary. The plants were employed for testing when they reached the first through fourth true leaf stage.
(§2) Treatments consisted of the acid or esters of 4-amino-3-chloro-6-(4-chloro-2-fluoro-3-methoxyphenyl)-5-fluoropyridine-2-carboxylic acid (Compound A), each formulated as an SC (suspension concentrate), and various insecticidal components alone and in combination. Forms of compound A were applied on an acid equivalent basis.
(§3) For treatments comprised of formulated compounds, measured amounts of compounds were placed individually in 25 mL glass vials and diluted in a volume of 1.25% volume per volume (v/v) Agri-Dex® crop oil concentrate to obtain 12× stock solutions. […] Application solutions were prepared by adding an appropriate amount of each stock solution (e.g., 1 mL) and diluted to the appropriate final concentrations with the addition of […] of an aqueous mixture of 1.25% (v/v) crop oil concentrate so that the final spray solutions contained 1.25+/−0.05% (v/v) crop oil concentrate.
(§4) As required, additional water and/or 97:3 v/v acetone/DMSO was added to individual application solutions so that the final acetone and DMSO concentrations of the application solutions being compared were 8.1% and 0.25%, respectively.
(§5) All stock solutions and applications solutions were visually inspected for compound compatibility prior to application. Spray solutions were applied to the plant material with an overhead Mandel track sprayer equipped with 8002E nozzles calibrated to deliver 187 L/ha over an application area of 0.503 square meters (m^2) at a spray height of 18 to 20 inches (46 to 50 cm) above average plant canopy height. Control plants were sprayed in the same manner with the solvent blank.
(§6) The treated plants and control plants were placed in a greenhouse as described above and watered by sub-irrigation to prevent wash-off of the test compounds. After approximately 3 weeks, the condition of the test plants as compared to that of the untreated plants was determined visually and scored on a scale of 0 to 100 percent where 0 corresponds to no injury or growth inhibition and 100 corresponds to complete kill.
(§7) Colby's equation was used to determine the herbicidal effects expected from the mixtures (Colby, S. R. Calculation of the synergistic and antagonistic response of herbicide combinations. Weeds 1967, 15, 20-22.).
(§8) The following equation was used to calculate the expected activity of mixtures containing two active ingredients, A and B: Expected=A+B−(A×B/100)

IPOHE = type: in vivo, Ipomoea hederacea
Method: as §1, §2, §3, §4, §5, §6, §7, §8

ECHCG = type: in vivo, Echinochloa crus-galli
Method: as §1, §2, §3, §4, §5, §6, §7, §8

BRAPP = assay: Postemergence foliar-applied weed control, direct-seeded rice (greenhouse); type: in vivo, Brachiaria platyphylla
Excerpt: (§9) Seeds or nutlets of the desired test plant species were planted in a soil matrix prepared by mixing a loam or sandy loam soil (e.g., 28.6 percent silt, 18.8 percent clay, and 52.6 percent sand, with a pH of about 5.8 and an organic matter content of about 1.8 percent) and calcareous grit in an 80 to 20 ratio. The soil matrix was contained in plastic pots with a volume of 1 quart and a surface area of 83.6 square centimeters (cm^2). When required to ensure good germination and healthy plants, a fungicide treatment and/or other chemical or physical treatment was applied. The plants were grown for 8-22 days in a greenhouse with an approximate 14 hour (h) photoperiod which was maintained at about 29° C. during the day and 26° C. during the night. Nutrients (Peters Excel® 15-5-15 5-Ca 2-Mg and iron chelate) were applied in the irrigation solution as needed and water was added on a regular basis. Supplemental lighting was provided with overhead metal halide 1000-Watt lamps as necessary. The plants were employed for testing when they reached the first through fourth true leaf stage.
as §2
(§10) Treatment requirements were calculated based upon the rates being tested, the concentration of active ingredient or acid equivalent in the formulation, and a 12 milliliter (mL) application volume at a rate of 187 liters per hectare (L/ha).
as §3, §4, §5, §6, §7, §8

DIGSA = type: in vivo, Digitaria sanguinalis
Method: as §1, §2, §3, §4, §5, §6, §7, §8

LEFCH = assay: whole plant or invertebrate; type: in vivo, Leptochloa chinensis
Method: as §1, §2, §3, §4, §5, §6, §7, §8

LEFFA = assay: Postemergence foliar-applied weed control, direct-seeded rice (greenhouse); type: in vivo, Leptochloa fascicularis
Excerpt: as §9, §2, §10, §3, §4, §5, §6, §7, §8

CYPES = type: in vivo, Cyperus esculentus
Method: as §1, §2, §3, §4, §5, §6, §7, §8

CYPIR = type: in vivo, Cyperus iria
Excerpt: as §9, §2, §10, §3, §4, §5, §6, §7, §8

COP(N)(=O)SC (stereo not drawn) [Methamidophos, O,S-dimethyl phosphoramidothioate, reference compound]
Visual Weed Control (%) - 19 DAA ECHCO Obs (ECHCO; 112 g ai/ha alone): 0% | Visual Weed Control (%) - 19 DAA ECHCO Obs (ECHCO; 224 g ai/ha alone): 0% | Visual Weed Control (%) - 19 DAA IPOHE Obs (IPOHE; 112 g ai/ha alone): 0% | Visual Weed Control (%) - 19 DAA IPOHE Obs (IPOHE; 224 g ai/ha alone): 0%

CC1(C)[C@H](C(=O)O[C@H](C#N)c2cccc(Oc3ccccc3)c2)[C@@H]1/C=C(\Cl)C(F)(F)F (racemic) [Lambda cyhalothrin]
Visual Weed Control (%) - 21 DAA ECHCG Obs (ECHCG; 21 DAA, 35 g ai/ha alone): 0% | Visual Weed Control (%) - 21 DAA IPOHE Obs (IPOHE; 21 DAA, 35 g ai/ha alone): 0%

CCOP(=S)(OCC)Oc1nc(Cl)c(Cl)cc1Cl [Chlorpyrifos, O,O-diethyl O-3,5,6-trichloro-2-pyridyl phosphorothioate]
Visual Weed Control (%) - 20 DAA BRAPP Obs (BRAPP; 180 g ai/ha alone): 0% | Visual Weed Control (%) - 20 DAA BRAPP Obs (BRAPP; 360 g ai/ha alone): 0% | Visual Weed Control (%) - 20 DAA BRAPP Obs (BRAPP; 720 g ai/ha alone): 0% | Visual Weed Control (%) - 20 DAA DIGSA Obs (DIGSA; 180 g ai/ha alone): 0% | Visual Weed Control (%) - 22 DAA DIGSA Obs (DIGSA; 180 g ai/ha alone): 0% | Visual Weed Control (%) - 20 DAA DIGSA Obs (DIGSA; 360 g ai/ha alone): 0% | Visual Weed Control (%) - 22 DAA DIGSA Obs (DIGSA; 360 g ai/ha alone): 0% | Visual Weed Control (%) - 20 DAA DIGSA Obs (DIGSA; 500 g ai/ha alone): 0% | Visual Weed Control (%) - 20 DAA DIGSA Obs (DIGSA; 720 g ai/ha alone): 0% | Visual Weed Control (%) - 22 DAA DIGSA Obs (DIGSA; 720 g ai/ha alone): 0% | Visual Weed Control (%) - 20 DAA ECHCG Obs (ECHCG; 180 g ai/ha alone): 0% | Visual Weed Control (%) - 20 DAA ECHCG Obs (ECHCG; 360 g ai/ha alone): 0% | Visual Weed Control (%) - 20 DAA ECHCG Obs (ECHCG; 720 g ai/ha alone): 0% | Visual Weed Control (%) - 20 DAA ECHCO Obs (ECHCO; 180 g ai/ha alone): 0% | Visual Weed Control (%) - 20 DAA ECHCO Obs (ECHCO; 360 g ai/ha alone): 0% | Visual Weed Control (%) - 20 DAA ECHCO Obs (ECHCO; 720 g ai/ha alone): 0% | Visual Weed Control (%) - 20 DAA IPOHE Obs (IPOHE; 180 g ai/ha alone): 10% | Visual Weed Control (%) - 20 DAA IPOHE Obs (IPOHE; 360 g ai/ha alone): 10% | Visual Weed Control (%) - 20 DAA IPOHE Obs (IPOHE; 720 g ai/ha alone): 0% | Visual Weed Control (%) - 20 DAA LEFCH Obs (LEFCH; 180 g ai/ha alone): 0% | Visual Weed Control (%) - 20 DAA LEFCH Obs (LEFCH; 360 g ai/ha alone): 0% | Visual Weed Control (%) - 20 DAA LEFCH Obs (LEFCH; 500 g ai/ha alone): 0% | Visual Weed Control (%) - 20 DAA LEFCH Obs (LEFCH; 720 g ai/ha alone): 0% | pest or weed control at 720 g/ha (LEFCH; Dinebra chinensis, post-emergence, 528 h, 720 g ai/ha alone, read-out: Visual Weed Control (%) - 22 DAA LEFCH Obs): 5% | Visual Weed Control (%) - 22 DAA LEFFA Obs (LEFFA; 180 g ai/ha alone): 0% | Visual Weed Control (%) - 22 DAA LEFFA Obs (LEFFA; 360 g ai/ha alone): 0% | Visual Weed Control (%) - 22 DAA LEFFA Obs (LEFFA; 720 g ai/ha alone): 0%

CNC(=O)Oc1cccc2ccccc12 [Carbaryl, 1-naphthalenyl N-methylcarbamate]
Visual Weed Control (%) - 20 DAA BRAPP Obs (BRAPP; 3 g ai/ha alone): 0% | Visual Weed Control (%) - 20 DAA BRAPP Obs (BRAPP; 6 g ai/ha alone): 0% | Visual Weed Control (%) - 20 DAA BRAPP Obs (BRAPP; 12 g ai/ha alone): 0% | Visual Weed Control (%) - 20 DAA CYPES Obs (CYPES; 24 g ai/ha alone): 0% | Visual Weed Control (%) - 20 DAA CYPES Obs (CYPES; 48 g ai/ha alone): 0% | Visual Weed Control (%) - 20 DAA CYPES Obs (CYPES; 96 g ai/ha alone): 0% | Visual Weed Control (%) - 20 DAA CYPIR Obs (CYPIR; 3 g ai/ha alone): 0% | Visual Weed Control (%) - 20 DAA CYPIR Obs (CYPIR; 6 g ai/ha alone): 0% | Visual Weed Control (%) - 20 DAA CYPIR Obs (CYPIR; 12 g ai/ha alone): 0% | Visual Weed Control (%) - 20 DAA DIGSA Obs (DIGSA; 3 g ai/ha alone): 0% | Visual Weed Control (%) - 20 DAA DIGSA Obs (DIGSA; 6 g ai/ha alone): 0% | Visual Weed Control (%) - 20 DAA DIGSA Obs (DIGSA; 12 g ai/ha alone): 0% | Visual Weed Control (%) - 20 DAA DIGSA Obs (DIGSA; 24 g ai/ha alone): 0% | Visual Weed Control (%) - 20 DAA DIGSA Obs (DIGSA; 48 g ai/ha alone): 0% | Visual Weed Control (%) - 20 DAA DIGSA Obs (DIGSA; 96 g ai/ha alone): 0% | Visual Weed Control (%) - 20 DAA ECHCG Obs (ECHCG; 3 g ai/ha alone): 0% | Visual Weed Control (%) - 20 DAA ECHCG Obs (ECHCG; 6 g ai/ha alone): 0% | Visual Weed Control (%) - 20 DAA ECHCG Obs (ECHCG; 12 g ai/ha alone): 0% | Visual Weed Control (%) - 20 DAA IPOHE Obs (IPOHE; 6 g ai/ha alone): 0% | Visual Weed Control (%) - 20 DAA IPOHE Obs (IPOHE; 12 g ai/ha alone): 10% | Visual Weed Control (%) - 20 DAA LEFCH Obs (LEFCH; 3 g ai/ha alone): 0% | Visual Weed Control (%) - 20 DAA LEFCH Obs (LEFCH; 6 g ai/ha alone): 0% | Visual Weed Control (%) - 20 DAA LEFCH Obs (LEFCH; 12 g ai/ha alone): 0%

CNC(=O)Oc1cccc2c1OC(C)(C)C2 [Carbofuran, 2,3-dihydro-2,2-dimethylbenzofuran-7-yl methylcarbamate]
Visual Weed Control (%) - 20 DAA CYPES Obs (CYPES; 125 g ai/ha alone): 0% | Visual Weed Control (%) - 20 DAA CYPES Obs (CYPES; 250 g ai/ha alone): 0% | Visual Weed Control (%) - 21 DAA IPOHE Obs (IPOHE; 500 g ai/ha alone): 0% | Visual Weed Control (%) - 21 DAA LEFCH Obs (LEFCH; 500 g ai/ha alone): 0%
